Peptide text beside a SMILES is read from it.
What was measured:
Format in all cases: in vivo
[1] = system: albino rabbits; assay: Intracutaneous reactivity test; conditions: for primary irritation index (Treated-Control): 0.2 ml intracutaneous; for erythema and oedema at treated sites: 24, 48 and 72 hours, same in vehicle control sites
Description: In order to test the potential irritation effects of the formulation according to certain embodiments of the present invention, an intracutaneous reactivity test was performed. Two extracts of a 3% w/v PFD5 hydrogel sample, one in a non-polar vehicle, cottonseed oil, and one in a polar vehicle, sodium chloride injection (0.9%), were prepared by immersing the sample in the relative solvents in order to reach a weight/volume ratio of 0.2 g/ml and incubating at 37±1° C. for 72±2 h in dynamic conditions (orbital stirrer). 0.2 ml of the two extracts and 0.2 ml of the respective solvents were intracutaneously injected in five sites of 3 albino rabbits, and macroscopical skin reactions, as erythema, oedema and eschar were evaluated. No abnormalities immediately after intradermal injection of sodium chloride injection extract and sodium chloride injection (vehicle control) were observed. […] The primary irritation index in sodium chloride injection (Treated-Control) was 0.00. No abnormalities immediately after intradermal injection of cottonseed oil extract and cottonseed oil (vehicle control) were observed. […] The primary irritation index in cottonseed oil (Treated-Control) was 0.00.

[2] = system: albino rabbits; assay: Implantation test (local implantation effects, femur); conditions: 3% w/v PFD5 formulation
Description: In order to test the local implantation effects of a 3% w/v PFD5 formulation according to certain embodiments of the present invention, an implantation test was performed.
10 albino rabbits were used for the test: each animal was implanted with the test sample at the right femur and with negative control (USP reference standard control plastic, HDPE) at the left femur, for a total of two sites/animal.
One explant time was scheduled after 4 weeks. Animals were daily submitted to general objective exam with the purpose to detect possible local effects due to the sample. The behavior of animals was observed and all abnormalities were recorded. During the explant, all implanted sites with the test sample and with the negative control were harvested and observed macroscopically to determine any injuries. Implantation sites of each animal and local lymph nodes were preserved in formalin 10% buffer solution and used for histological evaluation. […] Nothing abnormal was detected macroscopically in both treated and control sites of all animals.

[3] = system: rats; assay: Tissue augmentation in subcutaneous rat model; conditions: PFD5 3.5% w/v
Description: The effect of PFD5 3.5% w/v hydrogel on tissue augmentation was tested in a subcutaneous rat model and compared to the effect obtained in rats treated with a commercially available hyaluronic acid dermal filler. Individual rats were treated with 0.2 ml of PFD5 hydrogel or HA injection administered subcutaneously above the parietal bone. Animals were held for three days, one month and four months after which implants were excised and underwent histological examination and analysis for the area occupied by the implant. […] Due to the lower swellability of the PFD5 hydrogel as compared to the HA hydrogel, the area remained more invariable.

O=C(O)C[C@H](NC(=O)[C@@H]1CCCN1)C(=O)N[C@@H](Cc1ccccc1)C(=O)N[C@@H](CC(=O)O)C(=O)N[C@@H](Cc1ccccc1)C(=O)N[C@@H](CC(=O)O)C(=O)N[C@@H](Cc1ccccc1)C(=O)N[C@@H](CC(=O)O)C(=O)N[C@@H](Cc1ccccc1)C(=O)N[C@@H](CC(=O)O)C(=O)N[C@@H](Cc1ccccc1)C(=O)N[C@@H](CC(=O)O)C(=O)N1CCC[C@H]1C(=O)O [PFD5, Pro-(Asp-Phe)5-Asp-Pro] (H-PDFDFDFDFDFDP-OH) was tested, and the “primary irritation index (Treated-Control)” value ([1]; cottonseed oil extract of 3% w/v PFD5 hydrogel) was 0.00, the “erythema and oedema at treated sites” value ([1]; cottonseed oil extract) was “a slight erythema and a slight oedema” and the “primary irritation index (Treated-Control)” value ([1]; sodium chloride injection extract of 3% w/v PFD5 hydrogel) was 0.00. For the same molecule, the “erythema and oedema at treated sites” value ([1]; sodium chloride injection extract) was “no signs of erythema or oedema”, the “inflammatory responses or necrosis at the sites of implantation” value ([2]; 4 weeks) was “no inflammatory responses or necrosis” and the “local effects compared to the negative control” value ([2]; 4 weeks after implantation, control HDPE) was “Minimal local effects”. The “adverse tissue reaction (histology)” value [3] was “deprived of multinucleated giant cells or other adverse effects to nearby tissue”.

Reference: US12678388B2, “Dermatological compositions and use thereof” (BONE SCI. BIO LTD., priority 2021, dated 2026)
